Where a SMILES comes first, the peptide text is derived from it.
What was measured:
[1] = Antagonist activity at UT2 receptor in Sprague-Dawley rat thoracic aorta ring assessed as pEC50 for hU2-induced aortic contractions at 10^-5M relative to KCl
[2] = Antagonist activity at UT2 receptor in Sprague-Dawley rat thoracic aorta ring assessed as pEC50 for URP -induced aortic contractions at 10^-5M relative to KCl

EC50 [1] | EC50 [2] | SMILES
4.8 nM | 3.5 nM | CC(C)[C@H](NC(=O)[C@@H]1CSSC[C@H](NC(=O)[C@@H](N)CC(=O)O)C(=O)N[C@@H](Cc2ccccc2)C(=O)NN(Cc2ccccc2)S(=O)(=O)N[C@@H](CCCCN)C(=O)N[C@@H](Cc2ccc(O)cc2)C(=O)N1)C(=O)O (HELM PEPTIDE1{D.C.F.[NCCCC[C@H](NS(=O)(=O)N(Cc1ccccc1)N[*:1])C(=O)[*:2]].Y.C.V}$PEPTIDE1,PEPTIDE1,2:R3-6:R3$$$V2.0)
5 nM | 7.9 nM | CC(C)[C@H](NC(=O)[C@@H]1CSSC[C@H](NC(=O)[C@@H](N)CC(=O)O)C(=O)N[C@@H](Cc2ccccc2)C(=O)NN(Cc2cccc3ccccc23)S(=O)(=O)N[C@@H](CCCCN)C(=O)N[C@@H](Cc2ccc(O)cc2)C(=O)N1)C(=O)O
15 nM | 9.5 nM | CC(C)[C@H](NC(=O)[C@@H]1CSSC[C@H](NC(=O)[C@@H](N)CC(=O)O)C(=O)N[C@@H](Cc2ccccc2)C(=O)NN(Cc2ccc3ccccc3c2)S(=O)(=O)N[C@@H](CCCCN)C(=O)N[C@@H](Cc2ccc(O)cc2)C(=O)N1)C(=O)O

SMILES | EC50 [1] | EC50 [2]
CC(C)[C@H](NC(=O)[C@@H]1CSSC[C@H](NC(=O)[C@@H](N)CC(=O)O)C(=O)N[C@@H](Cc2ccccc2)C(=O)N[C@@H](Cc2c[nH]c3ccccc23)C(=O)NN(CCCCN(C)C)S(=O)(=O)N[C@@H](Cc2ccc(O)cc2)C(=O)N1)C(=O)O (HELM PEPTIDE1{D.C.F.W.[CN(C)CCCCN(N[*:1])S(=O)(=O)N[C@@H](Cc1ccc(O)cc1)C(=O)[*:2]].C.V}$PEPTIDE1,PEPTIDE1,2:R3-6:R3$$$V2.0) | 1.6 nM | 3.7 nM

Source: BindingDB's records for doi:10.1021/acs.jmedchem.6b00108 (University of Montreal, 2016)
